Broadly, the MIC is the lowest concentration that inhibits growth of the organism.

Assay [1] relates to Salmonella typhi. In words: Antibacterial activity against Salmonella typhi pateint isolate at 40 ug/ml after 24 hrs by agar well diffusion method. Particulars: Salmonella enterica, read-out: IZ. Type of assay: functional, Salmonella enterica subsp. enterica serovar Typhi.
The subject of assay [2] is Staphylococcus aureus. The assay can be described thus: Antibacterial activity against Staphylococcus aureus pateint isolate. Type of assay: functional.
Assay [3] relates to Escherichia coli. In words: Antibacterial activity against Escherichia coli pateint isolate at 40 ug/ml after 24 hrs by agar well diffusion method. Type of assay: functional.
The test system of assay [4] is Candida albicans. The assay can be described thus: Antifungal activity against Candida albicans. Type of assay: functional.
In assay [5] the test system is Candida albicans. The assay can be described thus: Antifungal activity against Candida albicans at 40 ug/ml after 72 hrs by agar well diffusion method. Type of assay: functional. Particulars: read-out: IZ. A general note: A growth-free zone around the sample is the usual read-out of agar diffusion tests.
Assay [6] concerns Escherichia coli. The assay can be described thus: Antibacterial activity against Escherichia coli pateint isolate. Type of assay: functional.
In assay [7] the test system is Aspergillus niger. The assay can be described thus: Antifungal activity against Aspergillus niger at 40 ug/ml after 72 hrs by agar well diffusion method. Type of assay: functional. Particulars: read-out: IZ.
Assay [8] has as its system Aspergillus niger. The assay can be described thus: Antifungal activity against Aspergillus niger. Type of assay: functional.
In assay [9] the test system is Salmonella typhi. In words: Antibacterial activity against Salmonella typhi pateint isolate. Type of assay: functional, Salmonella enterica subsp. enterica serovar Typhi. Particulars: Salmonella enterica.
In assay [10] the test system is Staphylococcus aureus. In words: Antibacterial activity against Staphylococcus aureus pateint isolate at 40 ug/ml after 24 hrs by agar well diffusion method. Type of assay: functional. Particulars: read-out: IZ.
Assay [11] deals with Bacillus subtilis. The assay can be described thus: Antibacterial activity against Bacillus subtilis pateint isolate. Type of assay: functional.
Assay [12] deals with Bacillus subtilis. In words: Antibacterial activity against Bacillus subtilis pateint isolate at 40 ug/ml after 24 hrs by agar well diffusion method. Type of assay: functional. Particulars: read-out: IZ.
The test system of assay [13] is Mus musculus. The assay can be described thus: Analgesic activity in Swiss albino mouse assessed as protection against acetic acid-induced writhing at 100 mg/kg, po administered 1 hr prior to acetic acid-challenge measured after 5 mins for 20 mins relative to control. Type of assay: functional. For orientation: Writhing tests count abdominal constrictions after an irritant is injected.

For assay [14], the system named is Salmonella typhi. The assay can be described thus: Antibacterial activity against Salmonella typhi pateint isolate at 40 ug/100 ul after 24 hrs by agar well diffusion method. Type of assay: functional, Salmonella enterica subsp. enterica serovar Typhi.
Assay [15] has as its system Candida albicans. In words: Antifungal activity against Candida albicans at 40 ug/100 ul after 72 hrs by agar well diffusion method. Type of assay: functional.
The test system of assay [16] is Aspergillus niger. In words: Antifungal activity against Aspergillus niger at 40 ug/100 ul after 72 hrs by agar well diffusion method. Type of assay: functional.

≈ marks a conversion by molar mass, not a printed value.

For the molecule `O=Cc1cn(-c2nc3cc(Cl)cc(Cl)c3o2)nc1-c1ccc(O)cc1`, the zone of inhibition at 40 µg/mL in assay [1] stood at 21 mm; in assay [5] it was 22 mm; in assay [7] it was 22 mm; in assay [10], 23 mm; in assay [12], 23 mm. For the same molecule, the minimal inhibitory concentration (MIC) in [2] stood at 20 µg/mL (≈ 53.4 µM); in assay [4] it was 20 µg/mL (≈ 53.4 µM); in [6], 30 µg/mL (≈ 80.2 µM); in assay [8] it was 30 µg/mL (≈ 80.2 µM); in assay [9], 30 µg/mL (≈ 80.2 µM); in assay [11], 20 µg/mL (≈ 53.4 µM). Moreover, the “inhibition zone (IZ)” value in assay [3] was 22 mm. Also, the Activity in assay [13] was 55.78%.
`Cc1ccc(-c2nn(-c3nc4cc(Cl)cc(Cl)c4o3)cc2C=O)cc1`: the zone of inhibition at 40 µg/mL in assay [1] amounted to 20 mm; in assay [5], 19 mm; in [7] it was 19 mm; in assay [10] it was 21 mm; in assay [12], 20 mm. In addition, the MIC in assay [2] is 30 µg/mL (≈ 80.6 µM); in [4] it was 30 µg/mL (≈ 80.6 µM); in assay [6], 40 µg/mL (≈ 107 µM); in [8], 30 µg/mL (≈ 80.6 µM); in [9] it was 30 µg/mL (≈ 80.6 µM); in [11], 30 µg/mL (≈ 80.6 µM). The “inhibition zone (IZ)” value in [3] was 21 mm. In [13], the Activity is 51.4%.
Regarding `O=Cc1cn(-c2nc3cc(Cl)cc(Cl)c3o2)nc1-c1ccc(Br)cc1`, the zone of inhibition at 40 µg/mL worked out at 21 mm in [1]; 23 mm in [5]; 22 mm in assay [7]; 23 mm in [10]; 22 mm in [12]. Also, the MIC in assay [2] worked out at 20 µg/mL (≈ 45.8 µM); in assay [4], 30 µg/mL (≈ 68.6 µM); in assay [6] it was 20 µg/mL (≈ 45.8 µM); in assay [8], 20 µg/mL (≈ 45.8 µM); in [9] it was 30 µg/mL (≈ 68.6 µM); in assay [11] it was 20 µg/mL (≈ 45.8 µM). For the same molecule, in [3], the “inhibition zone (IZ)” value stood at 22 mm. Moreover, the Activity in assay [13] is given as 54.63%.
Take `O=Cc1cn(-c2nc3cc(Cl)cc(Cl)c3o2)nc1-c1ccc(Cl)c(Cl)c1`: the zone of inhibition at 40 µg/mL turned out to be 20 mm in assay [1]; 22 mm in assay [5]; 22 mm in [7]; 22 mm in assay [10]; 22 mm in [12]. The MIC in assay [2] came to 30 µg/mL (≈ 70.2 µM); in [4], 40 µg/mL (≈ 93.7 µM); in [6], 30 µg/mL (≈ 70.2 µM); in assay [8] it was 40 µg/mL (≈ 93.7 µM); in assay [9] it was 30 µg/mL (≈ 70.2 µM); in [11], 30 µg/mL (≈ 70.2 µM). The “inhibition zone (IZ)” value in assay [3] is 22 mm. The Activity in [13] amounted to 50%.
With `COc1ccc(-c2nn(-c3nc4cc(Cl)cc(Cl)c4o3)cc2C=O)cc1`, the zone of inhibition at 40 µg/mL in assay [1] came out at 19 mm; in assay [5] it was 20 mm; in assay [7], 20 mm; in assay [10], 19 mm; in assay [12], 20 mm. Besides, the MIC stood at 30 µg/mL (≈ 77.3 µM) in assay [2]; 40 µg/mL (≈ 103 µM) in assay [4]; 40 µg/mL (≈ 103 µM) in assay [6]; 30 µg/mL (≈ 77.3 µM) in assay [8]; 40 µg/mL (≈ 103 µM) in assay [9]; 40 µg/mL (≈ 103 µM) in [11]. Also, the “inhibition zone (IZ)” value in [3] was 22 mm. For the same molecule, the Activity in [13] is reported as 50.27%.
In the case of `CC(=O)Oc1ccccc1C(=O)O` [ASPIRIN], the Activity in assay [13] is reported as 58.74%.
Turning to `O=C(O)c1cn(C2CC2)c2cc(N3CCNCC3)c(F)cc2c1=O` [CIPROFLOXACIN], the “inhibition zone (IZ)” value in assay [14] came out at 21 mm.
Turning to `OC(Cn1cncn1)(Cn1cncn1)c1ccc(F)cc1F` [FLUCONAZOLE], the “inhibition zone (IZ)” value is 23 mm in assay [15] and 22 mm in [16].

For the origin of these results see ChEMBL document CHEMBL3046211, “Synthesis, antimicrobial, analgesic activity, and molecular docking studies of novel 1-(5,7-dichloro-1,3-benzoxazol-2-yl)-3-phenyl-1H-pyrazole-4-carbaldehyde derivatives” (2013).
